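A five-concentration, 48-hour dose response in 96-well plates underlies each endpoint, interpolated linearly between surrounding concentrations. Abbreviation: GI50, concentration required for 50% inhibition of growth.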 Activity calls are given as the source filed them. Cut-off read from the data, not from the text of the source: active = GI50 up to about 1.1 µM and inactive = higher.
Assays:
Test in all cases: DTP human tumour cell line panel, 48 h
[1] = test system: DLD-1
[2] = test system: MDA-N
[3] = test system: KM-20L2
[4] = test system: SNB-78
[5] = test system: BT-549
[6] = test system: HOP-18
[7] = test system: XF498
[8] = test system: RXF 631
[9] = test system: M19-MEL

Compound	GI50 [1]	GI50 [2]	GI50 [3]	GI50 [4]	GI50 [5]	GI50 [6]	GI50 [7]	GI50 [8]	GI50 [9]
COc1ccc(/C=C2/CSC/C(=C/c3ccc(OC)c(OC)c3)C2=O)cc1OC	0.46 µM (active)	2.58 µM (inactive)	2.3 µM (inactive)	2.12 µM (inactive)	2.88 µM (inactive)	6.65 µM (inactive)	11.7 µM (inactive)	1.99 µM (inactive)	2.14 µM (inactive)
CCc1cccc(C(C)C)c1C1C(=O)C(=O)N(c2nc3ccccc3s2)C(=O)C1=O	> 100 µM (inactive)	–	> 100 µM (inactive)	> 100 µM (inactive)	–	> 100 µM (inactive)	–	> 100 µM (inactive)	> 100 µM (inactive)
O=C1C[C@H](c2ccc(O)c(O)c2)Oc2cc(O)cc(O)c21	> 100 µM (inactive)	–	> 100 µM (inactive)	> 100 µM (inactive)	–	> 100 µM (inactive)	–	64.4 µM (inactive)	> 100 µM (inactive)
CCS/C(=N\c1ccccc1)SC	> 100 µM (inactive)	–	> 100 µM (inactive)	> 100 µM (inactive)	–	> 100 µM (inactive)	> 100 µM (inactive)	> 100 µM (inactive)	> 100 µM (inactive)
O=C1c2ccccc2C(=O)N1C/C=N/NS(=O)(=O)c1ccc2ccccc2c1	> 100 µM (inactive)	–	> 100 µM (inactive)	> 100 µM (inactive)	–	> 100 µM (inactive)	> 100 µM (inactive)	> 100 µM (inactive)	> 100 µM (inactive)
O=C(O)c1c[nH]c2c(=O)[nH]cnc12	> 100 µM (inactive)	–	–	> 100 µM (inactive)	–	> 100 µM (inactive)	–	> 100 µM (inactive)	> 100 µM (inactive)
N#CC(/C(CCCC(=O)Nc1cccc([N+](=O)[O-])c1)=N/NC(=O)c1cc2ccccc2cc1O)c1ccccc1 (stereo unspecified)	36.7 µM (inactive)	–	38 µM (inactive)	–	–	18.3 µM (inactive)	25 µM (inactive)	29.8 µM (inactive)	17.9 µM (inactive)
CC(=O)Oc1ccc(O)c2c1CCCC2	20.7 µM (inactive)	–	> 100 µM (inactive)	19.8 µM (inactive)	–	21.6 µM (inactive)	16.4 µM (inactive)	> 100 µM (inactive)	13.4 µM (inactive)
O=c1c2ccccc2oc2nccnc12	> 100 µM (inactive)	–	> 100 µM (inactive)	> 100 µM (inactive)	–	> 100 µM (inactive)	> 100 µM (inactive)	> 100 µM (inactive)	> 100 µM (inactive)
COC(=O)N/N=C/c1oc(-c2ccccc2)c(-c2ccccc2)c1[N+](=O)[O-]	> 100 µM (inactive)	–	> 100 µM (inactive)	> 100 µM (inactive)	–	–	> 100 µM (inactive)	> 100 µM (inactive)	> 100 µM (inactive)
C[N+](C)(C)CC1CCCCC1O (stereo unspecified)	> 100 µM (inactive)	–	> 100 µM (inactive)	> 100 µM (inactive)	–	1.28 µM (inactive)	–	> 100 µM (inactive)	> 100 µM (inactive)
C=C1C(=O)C=C2C=C3C(=O)C(C)(C)C[C@]3(O)C12C (stereo partly specified)	1.65 µM (inactive)	3.76 µM (inactive)	–	7.74 µM (inactive)	1.54 µM (inactive)	–	1.85 µM (inactive)	16.4 µM (inactive)	5.68 µM (inactive)
COC1=CC(C2c3cc4c(cc3[C@@H](Nc3ccc([N+](=O)[O-])cc3)C3COC(=O)[C@H]23)OCO4)=CC(=O)C1=O (stereo partly specified)	14 µM (inactive)	–	9.1 µM (inactive)	28 µM (inactive)	–	53.6 µM (inactive)	5.5 µM (inactive)	2.29 µM (inactive)	6.4 µM (inactive)

From ChEMBL document CHEMBL1201862, “PubChem BioAssay data set” (2004)
